Data reported in the supplement of paper PMC10307832.

Experiments:
Assay in all cases: relative viability (nuclei count vs DMSO), 5 days (fraction); higher = more cells survive
XMD13-2 + Foretinib = compound: C1CC1C(=O)NC2=NNC3=C2C=CC(=C3)C4=CC(=CC=C4)C(=O)NC5CC5 [XMD13-2] + COc1cc2c(Oc3ccc(NC(=O)C4(C(=O)Nc5ccc(F)cc5)CC4)cc3F)ccnc2cc1OCCCN1CCOCC1 [Foretinib] (partner 0.25 µM)
How it was run: (§1)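 One day after seeding in 1536-well plates, lung cancer cell lines were dosed by pin tool. Dosing was either single-drug or a fixed anchor-drug dose plus five library-drug doses (not always all listed) in √10 steps. After 5 days, nuclei were stained in one fix-and-stain step and counted on 4× images, and relative viability is the nuclei count of treated wells over that of vehicle wells, given as the median of duplicate plates.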

XMD13-2 + Decitabine = compound: C1CC1C(=O)NC2=NNC3=C2C=CC(=C3)C4=CC(=CC=C4)C(=O)NC5CC5 [XMD13-2] + Nc1ncn([C@H]2C[C@H](O)[C@@H](CO)O2)c(=O)n1 [Decitabine] (partner 2 µM)
How it was run: as §1

ALW-II-49-7 + OSI-027 = compound: Cc1ccc(C(=O)Nc2cccc(C(F)(F)F)c2)cc1Nc1cncc(C(N)=O)c1 [ALW-II-49-7] + COc1cccc2cc(-c3nc([C@H]4CC[C@H](C(=O)O)CC4)n4ncnc(N)c34)[nH]c12 [OSI-027] (partner 0.5 µM)
How it was run: as §1

Dasatinib + Lapatinib = compound: Cc1nc(Nc2ncc(C(=O)Nc3c(C)cccc3Cl)s2)cc(N2CCN(CCO)CC2)n1 [Dasatinib] + CS(=O)(=O)CCNCc1ccc(-c2ccc3ncnc(Nc4ccc(OCc5cccc(F)c5)c(Cl)c4)c3c2)o1 [Lapatinib] (partner 2 µM)
How it was run: as §1

Cell Line	relative viability (XMD13-2 + Foretinib; first compound 0.05 µM)	relative viability (XMD13-2 + Foretinib; first compound 0.1581 µM)	relative viability (XMD13-2 + Foretinib; first compound 0.5 µM)	relative viability (XMD13-2 + Foretinib; first compound 1.581 µM)	relative viability (XMD13-2 + Foretinib; first compound 5 µM)	relative viability (XMD13-2 + Decitabine; first compound 0.05 µM)	relative viability (XMD13-2 + Decitabine; first compound 0.1581 µM)	relative viability (XMD13-2 + Decitabine; first compound 0.5 µM)	relative viability (XMD13-2 + Decitabine; first compound 1.581 µM)	relative viability (XMD13-2 + Decitabine; first compound 5 µM)	relative viability (ALW-II-49-7 + OSI-027; first compound 0.08 µM)	relative viability (ALW-II-49-7 + OSI-027; first compound 0.253 µM)	relative viability (ALW-II-49-7 + OSI-027; first compound 0.8 µM)	relative viability (ALW-II-49-7 + OSI-027; first compound 2.53 µM)	relative viability (ALW-II-49-7 + OSI-027; first compound 8 µM)	relative viability (Dasatinib + Lapatinib; first compound 0.005 µM)	relative viability (Dasatinib + Lapatinib; first compound 0.01581 µM)	relative viability (Dasatinib + Lapatinib; first compound 0.05 µM)	relative viability (Dasatinib + Lapatinib; first compound 0.1581 µM)	relative viability (Dasatinib + Lapatinib; first compound 0.5 µM)
NCI-H2170	0.937	0.97	1.03	0.9	0.984	0.507	0.466	0.506	0.459	0.43	0.71	0.931	0.67	0.664	0.703	0.264	0.236	0.271	0.259	0.216
NCI-H727	1.21	0.903	0.946	0.738	0.737	1.02	0.783	0.914	0.841	1	0.688	0.611	0.429	0.527	0.511	0.588	0.667	0.581	0.37	0.277
NCI-H838	1.19	1.05	1.01	1.04	1.01	0.386	0.414	0.477	0.436	0.387	0.352	0.385	0.389	0.434	0.378	0.925	0.678	0.504	0.252	0.237
H3255	0.886	0.891	0.893	0.696	0.984	0.749	0.72	0.532		0.603	0.556	0.58	0.559	0.483	0.388	0.303	0.212	0.208	0.155	0.204
EPLC-272H	0.71	0.629	0.644	0.568	0.187	0.363	0.391	0.485	0.339	0.314	0.277		0.278	0.293	0.265	0.866	0.913	0.938	0.79	0.346
NCI-H647	1.36	1.13	1.31	1.21	0.796	0.398	0.329	0.471	0.392	0.326	0.665	0.736	0.495	0.434	0.619	0.524	0.449	0.393	0.237	0.189
LXF-289	0.979	0.973	0.897	0.98	1.06	0.38	0.377	0.402	0.399	0.379	0.697	0.901	0.846	0.81	0.735	0.941	1.01	0.971	0.604	0.223
NCI-H1650	1.36	1.07	1.15	0.967	1.81	0.363	0.457	0.413	0.409	0.52	0.444	0.412	0.451	0.631	0.687	0.552	0.5	0.441	0.381	0.325
NCI-H1755	1.04	0.871	0.939	0.86	0.937	0.703	0.719	0.665	0.736	0.667	0.789	0.728	0.7	0.67	0.532	0.957	0.714	0.749	0.622	0.246
HCC-15	1.14	1	1.14	0.981	0.62	0.768	0.652	0.725	0.598	0.627	0.647	0.75	0.619	0.663	0.536	0.887	0.942	0.846	0.764	0.658
EMC-BAC-2	1.11	1.01	0.791	0.957	0.61	1.09	0.967	0.997		0.878	0.351	0.39	0.336	0.296	0.305	0.936	0.708	0.613	0.667	0.334
NCI-H1734	1.05	0.843	0.864	0.8	0.658	0.529	0.484	0.561	0.487	0.528	0.602	0.652	0.55	0.556	0.534	1.02	0.755	0.894	0.508	0.531
NCI-H1395	0.983	1.02	1.05	0.992	1	0.845	0.738	0.753	0.661	0.706	0.593	0.69	0.736	0.677	0.62	0.926	0.954	0.678	0.479	0.466
HOP-62	1.11	1.13	1.19	1.06	1	0.233	0.204	0.195	0.203	0.199	0.768	0.96	0.875	0.721	0.608	1.02	0.971	0.789	0.983	0.337
LK-2	1.45	0.959	1.06	1.16	1.16	0.378	0.297	0.274	0.281	0.329	0.202	0.205	0.213		0.186	0.772	0.612	0.412	0.313	0.283
SW 1573	1.01	0.832	0.984	0.841	0.733	0.775	0.464	0.608	0.498	0.431	0.683	0.653	0.524	0.656	0.505	1.15	0.967	1.01	0.738	0.826
